Experimental data reported in PMC6161179, “Looking for Novel Capsid Protein Multimerization Inhibitors of Feline Immunodeficiency Virus” (Pharmaceuticals, 2018).
Like-named read-outs stand apart in the source and are kept apart here.

How the values were obtained:
HIV-1 = test system: HIV-1; parameters: method as in PMID 12662926; details: at 100 µM; cited from earlier work
HIV-1 capsid protein = test system: HIV-1 capsid protein; parameters: method as in PMID 12662926; details: read-out: EC50 (affinity); cited from earlier work
FIV CA (p24) [1] = target: T1, FIV CA (p24) (Feline immunodeficiency virus, UniProt P16087); assay: Microscale thermophoresis (MST) binding to CA
T1 construct: The FIV CA protein was expressed and purified mostly as described; made in house; host or cells: Escherichia coli BL21(DE3) pLysS
T1 sequence (P16087 136-357): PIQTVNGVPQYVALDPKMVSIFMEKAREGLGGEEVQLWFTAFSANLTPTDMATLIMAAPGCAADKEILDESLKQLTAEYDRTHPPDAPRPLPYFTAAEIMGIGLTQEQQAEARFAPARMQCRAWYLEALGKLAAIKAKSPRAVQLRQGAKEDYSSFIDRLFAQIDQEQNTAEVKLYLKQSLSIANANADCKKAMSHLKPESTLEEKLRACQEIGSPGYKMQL
Description: The major disadvantage of this method is the interference of the compound with the measurement, either by autofluorescence or quenching.
We explored the binding affinity at two different times (10 and 60 min) to enhance the poetical interactions.
MTS experiments were performed according to the NanoTemper technologies protocol in a Monolith NT.115 (green/blue) instrument (NanoTemper Technologies, München, Germany). With this technique, the diffusion behavior of a labeled protein is measured when an infrared light excites the movement of the protein in capillaries. This behavior is the combination of two effects: the fast, local environment dependent responses of the fluorophore to the temperature jump and the slower diffusive thermophoresis fluorescence changes. It will be modified when the protein is complexed with increasing amounts of unlabeled partners, leading to titration curves that can be fit for Kd estimation. In practice, CA was labeled with the Monolith His-Tag Labeling Kit RED-tris-NTA (NanoTemper Technologies, München, Germany), as described by the manufacturer. The experiments were performed using 20% and 40% MST power and between 20–80% LED power at 24 °C. The MST traces were recorded using the standard parameters: 5 s MST power off, 30 s MST power on, and 5 s MST power off. The compounds were used at high concentrations (around 5 mM) in the bindings check assay with DMSO at 5% v/v. If the binding check was positive, then the affinity determination was performed with the same experimental settings, with serial 2× dilutions of the compound of interest.

murine macrophages = test system: murine macrophages; parameters: method as in PMID 28481276; details: read-out: cytotoxicity IC50; cited from earlier work
[2] = test system: J774.1 murine macrophage cells; assay: MTT cytotoxicity assay in J774.1 murine macrophages; assay type: cell-based; details: compound at 100µM, 48 h
Description: (§1) Vero cell lines (ATCC, Rockville, MD, USA) were cultivated in Dulbecco’s modified Eagles medium (DMEM) with 10% FCS in a humid atmosphere of 5% CO2 at 37 °C. Vero cells were seeded in 96-well plates at an initial density of 5 × 10^3 cells per well. J774.1 murine macrophage cells (ATCC, Manassas, VA, USA) were grown in DMEM culture milieu containing 4 mM L-glutamine and supplemented with 10% FCS. The cells were seeded in a 96-well plate (5 × 10^4 cells in 200 µL culture medium) and incubated at 37 °C in a 5% CO2 atmosphere for 48 h, to allow cell adhesion prior to drug testing. Both cell lines were exposed for 48 h (at 37 °C and 5% CO2) to the compounds (100 µM) or the solvent (0.4% DMSO) for the control, and additional controls (cells in medium) were used in each test. The cytotoxicity of the compounds was evaluated by MTT reduction assays. To proceed with the MTT assay, 20 μL of 3-(4,5-dimethylthiazol-2-yl)-2,5-diphenyl-2H-tetrazolium bromide (MTT) 5 mg/mL solution dissolved in 1× PBS was added to the wells and incubated for 4 h at 37 °C in a 5% CO2 controlled atmosphere. Next, the medium was aspirated and 100 μL of DMSO was added to each well and incubated at room temperature in the dark for 15 min with moderate orbital shaking. Optical density (OD) was read in a plate spectrophotometer (Thermo Scientific Varioskan® Flash Multimode, Waltham, MA, USA) at 570 and 690 nm wavelengths. Each experiment was performed in triplicate. For the statistical analyses, the GraphPad Prism 6 was used. Dunnett’s multiple comparison tests and Student’s T-test were used when we compared the averages of each condition with the control.

FIV CA (p24) [3] = target: T1, FIV CA (p24); assay: In vitro CA assembly assay (spectrophotometry / light scattering); assay type: biochemical; details: re-validated by light scattering and spectrophotometry; compounds at 25 or 50 µM
Description: Indeed, our initial assay used light scattering and could only monitor the assembly of one sample per experiment on 40 min kinetics. […] The use of the spectrometric technique to follow capsid assembly has been described for HIV [24] and is based on the detection of capsid assembly via the measurement of the increase of medium turbidity. The use of this technique to monitor FIV p24 assembly allowed us to use 384-well plates, reducing the volume of protein to 15 µL per sample and allowing a testing of 10 compounds, in duplicate, in 40 min. Moreover, in this format, the protein concentration (5 mg/mL) was enough to start the assembly without needing the high concentration of salt used in the HIV in vitro assembly assay. High salt concentration could cause a problem by interfering with the solvation and solubility of some molecules and the loss of their interaction with the target. The only limitation of this method using low volumes was the risk of introducing air bubbles in the reaction, which interfere negatively in the absorbance measurement. However, this issue was solved by a careful manipulation in the filling process of the plates.
With this spectrometric assembly assay, we were able to discriminate two different behaviors for compounds interfering with the assembly of FIV CA: the enhancement of the assembly or its inhibition. The enhancement of assembly is associated with an increase of the diameter of the assembled objects and could result in a disordered or altered capsid with a loss of function. Inhibition is the classical effect which would impair the formation of the capsid (Figure 3).
High nitrogen content heretocycles were not a good source of bioactive molecules. Some compounds with structural similarities with Bevirimat were also active, like some steroid compounds clustered in diverse families. […] We could not find active molecules in four families (i.e., selenium containing compounds, flavones, triazines, and indazoles).
The CA assembly assay was performed in a final volume of 50 μL in 384-well plates, with a final concentration of 5 mg/mL of purified recombinant FIV […] in 50 mM NaH2PO4 and 1 M NaCl, pH 7.4. Absorbance is measured at 340 nm every 30 s in a multiplate reader Varioskan^TM Flash Multimode Reader (Thermo Scientific^TM, Waltham, MA, USA) at 38 °C for 30 min. The compounds were tested at a fixed initial dose of 25 or 50 μM (at 0.5% DMSO v/v) by adding 1 µL of the concentrated ligand were added to the well before starting the measurement. The controls were CA at 5 mg/mL in only 0.5% DMSO v/v and CA without DMSO. The criteria to select active compounds were the observation of at least 50% of assembly inhibition at these doses, based on the reduction of the OD value at 340 nm at the plateau value compared to the controls.

Vero cell lines = assay: MTT cytotoxicity assay in Vero cells; assay type: cell-based; details: compound at 100µM, 48 h
Description: as §1

[4] = test system: five different enzymes from pathogen parasites; parameters: method as in PMID 20889239, PMID 28481276; details: at 100 µM; cited from earlier work
[5] = test system: murine acute infection model of the Chagas disease; parameters: method as in PMID 26492824; details: 100 mg/kg body for 15 days; cited from earlier work
[6] = 1 h (60 min), read-out: 1h EC50

Row | Structure (SMILES) | EC50 (FIV CA (p24) [1]; 10 min, read-out: 10 min EC50) [µM] | EC50 (FIV CA (p24) [1]; [6]) [µM] | Murine macrophages (grown %) [2] [%] | inhibition of the assembly (FIV CA (p24) [3]) | VERO (grown %) (Vero cell lines) [%] | inhibitory effects [4] | other results
1 | Cc1ccc(NC(=O)NCCSCc2ccc(CN(C)C)o2)cc1Cl [CAP-1] | – | – | – | – | – | – | activity in the in vitro infection assay (HIV-1): active; EC50 (HIV-1 capsid protein): 60 µM
2 | O=C1C(=Cc2ccc([N+](=O)[O-])cc2)C(=O)N(CCc2ccccc2)S(=O)(=O)N1CCc1ccccc1 [compound 110] | 1100 | 789 | – | – | – | – | –
3 | Nc1ccc(S(=O)(=O)c2ccc(Nc3c([N+](=O)[O-])c(Nc4ccc(S(=O)(=O)c5ccc(N)cc5)cc4)c4no[n+]([O-])c4c3[N+](=O)[O-])cc2)cc1 [compound 703] | 320 | 720 | – | – | – | – | –
4 | C=CCn1c(C(=O)O)cs\c1=N/N=C/C=C/c1ccc(C)o1 [compound 789] | 640 | 655 | – | – | – | – | –
5 | CC(/C=N/N1CCSCC1)=C\c1ccco1 [compound 878] | 119 | 166 | 98±8 | inhibition of the assembly | 100±8 | did not display inhibitory effects | EC50 (FIV CA (p24) [1]; 1 h (60 min), Figure 5 panel A, read-out: 1h EC50): 166 µM; IC50 (murine macrophages): > 100 µM
6 | C=CCn1c(C)cs\c1=N/N=C/C=C/c1cccs1 [compound 1128] | 322 | 484 | – | – | – | – | –
7 | O=C(O)c1cs/c(=N/N=C/C=C/C=C/c2cccs2)n1-c1ccccc1 [compound 1136] | 212 | 83 | 95±7 | inhibition of the assembly | 100±9 | did not display inhibitory effects | –
8 | C=CCN1C(=O)CS\C1=N/N=C/C=C/c1cccs1 [compound 1138] | 242 | 180 | – | – | – | – | –
9 | O=C1/C(=C/C=C/c2ccccc2)CC/C1=C\C=C\c1ccccc1 [compound 1246] | 390 | 239 | 79±9 | inhibition of the assembly | 89±5 | did not display inhibitory effects | toxic effect [5]: without toxic effect; IC50 (murine macrophages): > 100 µM
10 | C=CCn1c(C(=O)O)cs/c1=N\N=C\c1ccc(/C=N/N=c2\scc(C(=O)O)n2CC=C)cc1 [compound 1310] | 655 | 670 | 98±7 | inhibition of the assembly | 95±7 | did not display inhibitory effects | –
11 | C=CCNC(=S)N/N=C/c1ccc2c(c1)c1cc(/C=N/NC(=S)NCC=C)ccc1n2CC(CC)CCCC (centres unmarked) [compound 1368] | – | 35 | – | – | – | – | –
